The target of one series is T1, Bovine type 1 trypsin (Bos taurus, UniProt P00760).
T1 construct: purchased Sigma
T1 sequence (P00760 24-246): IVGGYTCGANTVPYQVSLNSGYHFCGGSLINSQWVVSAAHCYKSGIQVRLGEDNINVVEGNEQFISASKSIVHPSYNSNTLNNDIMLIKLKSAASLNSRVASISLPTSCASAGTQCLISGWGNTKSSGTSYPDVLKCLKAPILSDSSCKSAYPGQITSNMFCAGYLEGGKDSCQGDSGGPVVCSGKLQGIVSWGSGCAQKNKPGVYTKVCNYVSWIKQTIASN
Nature of the series: Trypsin-catalyzed hydrolysis of chromogenic substrate Spectrozyme TRY (in vitro enzyme assay). The series is classed as biochemical. Conditions: 3.2 U/ml trypsin, 0.1-0.3 mM Spectrozyme TRY; for IC50: read-out: Trp IC50; for Ki: read-out: Trp Ki (listed in place of the IC50). As for the experimental part:
The compounds of the invention were tested for their ability to inhibit thrombin mediated hydrolysis. An in vitro enzyme assay was performed as well as an ex vivo assay. In addition, the compounds were tested in vitro for their ability to inhibit trypsin, as an indication of their selectivity.
Trypsin-catalyzed hydrolysis rates were measured using the same method as the thrombin procedure.
The compound numbers in the table correspond to the examples described hereinafter.

For series [1] the following is noted: rat, in vivo, iv.
Procedure: An ex vivo assay was conducted to determine the duration of action of the compounds of Formula I. For this i.v. assay male rats (Long Evans, 350-500 g) were implanted with a teflon cannulae via the femoral artery while under anesthesia (pentobarbital i.p., 35 mg/kg). […] The animals were allowed to recover for at least 24 h after the surgical procedure.
The test compound was dispersed in water and delivered to the animal (0.25 mL) via the femoral vein. […] A plasma sample was obtained by centrifuging the blood at 10,000 rpm for 5 min. This sample is analyzed for thrombin inhibition using the chromogenic assay, described below.
Datum was collected over a 30 min period and the initial rate of substrate hydrolysis (V0 (mOD/min)) was calculated with an analysis program (Softmax, Molecular Devices).
The time to half plasma elimination (t 1/2) was calculated from the slope of Vo vs. time, using the following equation: t 1/2=-1.6 slope.
The next series deals with T2, human alpha-thrombin (Homo sapiens, UniProt P00734).
T2 construct: commercial human alpha-thrombin (American Diagnostica); purchased American Diagnostica
Nature of the series: Thrombin-catalyzed hydrolysis of chromogenic substrate Spectozyme TH (in vitro enzyme assay). The series is classed as biochemical. Conditions: 1 nM thrombin, 37° C., pH 7.4; for IC50: 50 μM Spectozyme TH, read-out: Thr IC50; for Ki: 5-100 μM Spectozyme TH, read-out: Thr Ki (listed in place of the IC50).

Procedure for human alpha-thrombin: Thrombin-catalyzed hydrolysis rates were measured spectrophotometrically using commercial human alpha-thrombin (American Diagnostica), a chromogenic substrate (Spectozyme® TH (H-D-HHT-Ala-Arg-pNA.2AcOH), American Diagnostica) in aqueous buffer (10 mM Tris, 10 mM Hepes, 150 mM NaCl, 0.1% PEG; pH 7.4), and a microplate reader (Molecular Devices). Changes in absorbance at 405 nm were monitored (Softmax, Molecular Devices), upon addition of enzyme, both with and without inhibitor present at 37° C. over 30 minutes. […] Michaelis-Menton kinetics were applied to the initial reaction slopes. […] Michaelis-Menton kinetics were applied to the initial reaction slopes using the program K.Cat (Bio Metallics Inc.).

Take `C[C@@](N)(Cc1ccccc1)C(=O)N1CCC[C@H]1C(=O)N[C@@H](CCCNC(=N)N)C(=O)c1nc2ccccc2s1` [Compound 47]: the IC50 (in general, the concentration needed to halve the response being measured) at Bovine type 1 trypsin turned out to be 4 nM.

For `CNC(C(=O)N1CCCC1C(=O)NC(CCCNC(=N)N)C(=O)c1nc2ccccc2s1)c1ccccc1` [Compound 33, N-METHYL-D-PHENYLGLYCYL-N-[4-[(AMINOIMINOMETHYL)AMINO]-1S-[(BENXOTHIAZOL-2- YL)CARBONYL]BUTYL]-L-PROLINAMIDE], the IC50 on Bovine type 1 trypsin was determined as 2 nM. Further, the “t1/2 (time to half plasma elimination)” value in series [1] stood at 18 min.

Turning to `CN[C@H](Cc1ccccc1)C(=O)N1CCC[C@H]1C(=O)N[C@H](CCCNC(=N)N)C(=O)c1nc(C(=O)NCCc2ccccc2)cs1` [Compound 56], the values for the concentration for half-maximal inhibition (IC50) at human alpha-thrombin and on Bovine type 1 trypsin were 21000 nM and 27.9 nM, respectively.

`N=C(N)NCCC[C@H](NC(=O)[C@@H]1CCCN1C(=O)C(N)(c1ccccc1)c1ccccc1)C(=O)c1nc2ccccc2s1` [Compound 46]: the results for the IC50 at human alpha-thrombin and on Bovine type 1 trypsin were 15 nM and 3 nM, respectively.

As to `CN(C)c1cccc2c(S(=O)(=O)N[C@@H](CCCNC(=N)N)C(=O)N3CCCCC3CCC(=O)c3nccs3)cccc12` (single isomer, unassigned) [Compound 26], the Ki (as a rule, the equilibrium dissociation constant of an inhibitor or competing ligand from its target) at human alpha-thrombin came to 38000 nM; at Bovine type 1 trypsin, 180000 nM.

As for `CN[C@H](Cc1ccccc1)C(=O)N1CCC[C@H]1C(=O)N[C@@H](CCCNC(=N)N)C(=O)c1nc2ccc(CO)cc2s1` [Compound 15, N-METHYL-D-PHENYLALANYL-N-[4-[(AMINOIMINOMETHYL)AMINO]-1S-[(6-HYDROXYMETHYL BENXOTHIAZOL-2-YL)CARBONYL]BUTYL]-L-PROLINAMIDE], the IC50 at Bovine type 1 trypsin worked out at 3 nM. In series [1], the “t1/2 (time to half plasma elimination)” value amounted to 16 min.

As for `CN[C@H](Cc1ccccc1)C(=O)N1CCC[C@H]1C(=O)N[C@@H](CCCCNC(=N)N)C(=O)c1nc2ccccc2s1` [Compound 11, N-METHYL-D-PHENYLALANYL-N-[5-[(AMINOIMINOMETHYL)AMINO]-1S-[(BENXOTHIAZOL-2- YL)CARBONYL]PENTYL]-L-PROLINAMIDE], the values for the Ki on human alpha-thrombin and at Bovine type 1 trypsin were 420 nM and 6010 nM, respectively.

Regarding `N=C(N)NCCC[C@H](NC(=O)[C@@H]1CCCN1)C(=O)c1nc2ccccc2s1` [Compound 48], on Bovine type 1 trypsin, the IC50 was determined as 684 nM.

For the molecule `CN[C@H](Cc1ccccc1)C(=O)N1CCC[C@H]1C(=O)N[C@@H](Cc1ccc(C(=N)N)cc1)C(=O)c1nc2ccccc2s1` [Compound 57], the IC50 came out at 19600 nM at human alpha-thrombin and 182 nM at Bovine type 1 trypsin.

Regarding `CN[C@H](Cc1ccccc1)C(=O)N1CCC[C@H]1C(=O)N[C@@H](CCCNC(=N)N)C(=O)c1nc2ccc(OC)cc2s1` [Compound 50, N-METHYL-D-PHENYLALANYL-N-[4-[(AMINOIMINOMETHYL)AMINO]-1S-[(6-METHOXYBENXOT HIAZOL-2-YL)CARBONYL]BUTYL]-L-PROLINAMIDE], the Ki on Bovine type 1 trypsin amounted to 2 nM.

Take `N=C(N)NCCC[C@H](NC(=O)[C@@H]1CCCN1C(=O)[C@H](N)Cc1ccccc1)C(=O)c1nc2ccccc2s1` [Compound 41, D-PHENYLALANYL-N-[4-[(AMINOIMINOMETHYL)AMINO]-1S-[(BENZOTHIAZOL-2-YL)CARBON YL]BUTYL]-L-PROLINAMIDE]: the IC50 on Bovine type 1 trypsin is 1 nM.

In the case of `CN[C@@H](C(=O)N1CCC[C@H]1C(=O)N[C@@H](CCCNC(=N)N)C(=O)c1nc2ccccc2s1)C1CCCCC1` [Compound 37, N-METHYL-D-CYCLOHEXYLGLYCYL-N-[4-[(AMINOIMINOMETHYL)AMINO]-1S-[(BENXOTHIAZO L-2-YL)CARBONYL]BUTYL]-L-PROLINAMIDE], the IC50 at Bovine type 1 trypsin came to 1 nM. Further, in series [1], the “t1/2 (time to half plasma elimination)” value stood at 42 min.

Regarding `CN[C@H](Cc1ccccc1)C(=O)N1CCC[C@H]1C(=O)N[C@H](CCCNC(=N)N)C(=O)c1nc2ccccc2s1` [Compound 2, N-METHYL-D-PHENYLALANYL-N-[4-[(AMINOIMINOMETHYL)AMINO]-1R-[(BENXOTHIAZOL-2- YL)CARBONYL]BUTYL]-L-PROLINAMIDE], the Ki at human alpha-thrombin turned out to be 0.9 nM.

Consider `CN[C@H](Cc1ccccc1)C(=O)N1CCC[C@H]1C(=O)N[C@@H](CCCNC(=N)N)C(=O)c1nc2ccc(C(=O)OC)cc2s1` [Compound 12, N-METHYL-D-PHENYLALANYL-N-[4-[(AMINOIMINOMETHYL)AMINO]-2S-[(6-METHOXYCARBON YLBENXOTHIAZOL-2-YL)CARBONYL]BUTYL]-L-PROLINAMIDE], for which the IC50 at Bovine type 1 trypsin is 3 nM. Moreover, the “t1/2 (time to half plasma elimination)” value in series [1] worked out at 43 min.

On to `CN[C@H](Cc1ccccc1)C(=O)N1CCC[C@H]1C(=O)N[C@H](C=O)CCCNC(=N)N` [reference compound], for which, at Bovine type 1 trypsin, the Ki was 3.9 nM.

`CN[C@H](Cc1ccccc1)C(=O)N1CCC[C@H]1C(=O)N[C@@H](CCCNC(=N)N)C(=O)c1nc2ccc(F)cc2s1` [Compound 18, N-METHYL-D-PHENYLALANYL-N-[4-[(AMINOIMINOMETHYL)AMINO]-1S-[(6-FLUOROBENXOTH IAZOL-2-YL)CARBONYL]BUTYL]-L-PROLINAMIDE]: the IC50 on Bovine type 1 trypsin is 130 nM.

For the molecule `CN[C@H](Cc1ccccc1)C(=O)N1CCC[C@H]1C(=O)N[C@@H](CCCNC(=N)N)C(=O)c1nc2ccc3ccccc3c2s1` [Compound 52, N-METHYL-D-PHENYLALANYL-N-[4-[(AMINOIMINOMETHYL)AMINO]-1S-[(NAPTHO[2,1-D]TH IAZOL-2-YL)CARBONYL]BUTYL]-L-PROLINAMIDE], the IC50 on Bovine type 1 trypsin came out at 5 nM. The “t1/2 (time to half plasma elimination)” value in series [1] was 8 min.

Turning to `CCOC(=O)c1csc(C(=O)[C@H](CCCNC(=N)N)NC(=O)[C@@H]2CCCN2C(=O)[C@@H](Cc2ccccc2)NC)n1` [Compound 20, N-METHYL-D-PHENYLALANYL-N-[4-[(AMINOIMINOMETHYL)AMINO]-1S-[(4-ETHOXYCARBONY LTHIAZOL-2-YL)CARBONYL]BUTYL]-L-PROLINAMIDE], the IC50 at human alpha-thrombin is 450 nM; on Bovine type 1 trypsin, 58 nM.

Consider `CN[C@H](Cc1ccccc1)C(=O)N1CCC[C@H]1C(=O)N[C@@H](CCCNC(=N)N)C(=O)c1nccn1C` [Compound 22], for which the IC50 worked out at 1520 nM at human alpha-thrombin and 18400 nM on Bovine type 1 trypsin.

`CN[C@H](Cc1ccccc1)C(=O)N1CCC[C@H]1C(=O)N(C)[C@@H](CCCNC(=N)N)C(=O)c1nc2ccccc2s1` [Compound 40]: the IC50 at human alpha-thrombin is 20500 nM; on Bovine type 1 trypsin, 7010 nM.

`CN[C@H](Cc1ccccc1)C(=O)N1CCCC[C@H]1C(=O)N[C@@H](CCCNC(=N)N)C(=O)c1nc2ccccc2s1` [Compound 42, N-METHYL-D-PHENYLALANYL-N-[4-[(AMINOIMINOMETHYL)AMINO]-1S-[(BENZOTHIAZOL-2- YL)CARBONYL]BUTYL]-2S-PIPERIDINECARBOXAMIDE]: on Bovine type 1 trypsin, the IC50 came out at 2 nM.

As for `CN[C@H](Cc1ccccc1)C(=O)N1CCC[C@H]1C(=O)N[C@@H](CCCNC(=N)N)C(=O)c1nc2ccccc2c(=O)[nH]1` [Compound 24], the IC50 turned out to be 106 nM on human alpha-thrombin and 14 nM at Bovine type 1 trypsin.

In the case of `CC1CNc2c(cccc2S(=O)(=O)N[C@@H](CCCNC(=N)N)C(=O)N2CC[C@@H](C)C[C@@H]2C(=O)O)C1` (some centres unmarked) [Argatroban, reference compound], the inhibition constant Ki at Bovine type 1 trypsin stood at 2900 nM.

With `CN[C@H](Cc1ccccc1)C(=O)N1CCC[C@H]1C(=O)N[C@@H](CCCNC(=N)N)C(=O)c1ccccn1` [Compound 23], the IC50 came out at 928 nM on human alpha-thrombin and 238 nM on Bovine type 1 trypsin.

As to `CN[C@H](Cc1ccccc1)C(=O)N1CCC[C@H]1C(=O)N[C@@H](CCCNC(=N)N)C(=O)c1nc(C(=O)NCCc2ccccc2)cs1` [Compound 55], the results for the IC50 at human alpha-thrombin and at Bovine type 1 trypsin were 830 nM and 8.6 nM, respectively.

As for `CN(C)c1cccc2c(S(=O)(=O)N[C@@H](CCCNC(=N)N)C(=O)N3CCCCC3CCC(=O)c3nccs3)cccc12` (single isomer, unassigned) [Compound 27], the Ki amounted to 1200 nM at human alpha-thrombin and 12000 nM at Bovine type 1 trypsin.

For the molecule `CNC1(C(=O)N2CCC[C@H]2C(=O)N[C@@H](CCCNC(=N)N)C(=O)c2nc3ccccc3s2)CCCCC1` [Compound 45, 1-(N-METHYLAMINO)-1-CYCLOHEXYLCARBONYL-N-[4-[(AMINOIMINOMETHYL)AMINO]-1S-[( BENZOTHIAZOL-2-YL)CARBONYL]BUTYL]-L-PROLINAMIDE], the IC50 on human alpha-thrombin worked out at 371 nM; at Bovine type 1 trypsin, 9 nM.

As for `CN[C@H](Cc1ccccc1)C(=O)N1CCC[C@H]1C(=O)N[C@@H](Cc1ccccc1)C(=O)c1nc2ccccc2s1` [Compound 38], the IC50 at human alpha-thrombin is 29900 nM; on Bovine type 1 trypsin, 38700 nM.

On to `CN[C@H](Cc1ccccc1)C(=O)N1CCC[C@H]1C(=O)N[C@@H](CCCNC(=N)N)C(=O)c1nc2ccc(C(N)=O)cc2s1` [Compound 14, N-METHYL-D-PHENYLALANYL-N-[4-[(AMINOIMINOMETHYL)AMINO]-1S-[(6-CARBOXAMIDOBE NXOTHIAZOL-2-YL)CARBONYL]BUTYL]-L-PROLINAMIDE], for which, on Bovine type 1 trypsin, the 50% inhibitory concentration (IC50) is 3 nM.

As to `N=C(N)NCCC[C@H](NC(=O)C1CCCC1)C(=O)c1nc2ccccc2s1` [Compound 31], the IC50 on Bovine type 1 trypsin stood at 80 nM.

Take `CN[C@H](Cc1ccccc1)C(=O)N1CCC[C@H]1C(=O)N[C@H](CCCNC(=N)N)C(=O)c1nc2ccc(CO)cc2s1` [Compound 16, N-METHYL-D-PHENYLALANYL-N-[4-[(AMINOIMINOMETHYL)AMINO]-1R-[(6-HYDROXYMETHYL BENXOTHIAZOL-2-YL)CARBONYL]BUTYL]-L-PROLINAMIDE]: the IC50 on Bovine type 1 trypsin was 238 nM.

The values are drawn from patent US5523308A, “Peptidyl heterocycles useful in the treatment of thrombin related disorders” (priority 1995, dated 1996).
